Source: PubChem BioAssay AID1259408 (Genetic Toxicology Data Bank (GENE-TOX), 2018)
The source made the active and inactive calls. No rule for the calls is given here.

System: GENE-TOX genotoxicity assays, various organisms and cells
Assay: GENE-TOX mutagenicity studies
Conditions: for call: Assay Type: In vivo carcinogenicity studies, Assay Code: CCG+
[1] = Species/Cell Type: Salmonella typhimurium (one or more of the five standard strains: TA98, TA100, TA1535, TA1537, and TA1538), Assay Type: Histidine reverse gene mutation, Ames assay, Assay Code: SAL+, Evaluation Type: Evaluation A (Pre-1980)
[2] = Species/Cell Type: Escherichia coli polA (W3119 vs P3478), Assay Type: Rec-assay, DNA effects (bacterial DNA repair), Assay Code: RE1+, Evaluation Type: Evaluation A (Pre-1980)
[3] = Species/Cell Type: Mammalian polychromatic erythrocytes, Assay Type: Micronucleus test, chromosome aberrations, Assay Code: MNTT, Evaluation Type: Evaluation A (Pre-1980)
[4] = Species/Cell Type: Neurospora crassa, Assay Type: Forward gene mutation, Assay Code: NEF+, Evaluation Type: Evaluation A (Pre-1980)
[5] = Species/Cell Type: Nonhuman, Evaluation Type: Evaluation A (Pre-1980)
[6] = Species/Cell Type: Bacillus subtilis (H17 vs M45), Assay Type: Rec-assay, spot test, DNA effects (bacterial DNA repair), Assay Code: REW-, Evaluation Type: Evaluation A (Pre-1980)
[7] = Species/Cell Type: Salmonella typhimurium (one or more of the five standard strains: TA98, TA100, TA1535, TA1537, and TA1538), Assay Type: Histidine reverse gene mutation, Ames assay, Assay Code: SAL+*, Activation: With metabolic activation, Evaluation Type: Evaluation A (Pre-1980)
[8] = Species/Cell Type: Drosophila melanogaster, Assay Type: Sex-linked recessive lethal gene mutation, Assay Code: SRLT, Evaluation Type: Evaluation A (Pre-1980)

With `CC(=O)Nc1ccccc1O` the mutagenic call (Species/Cell Type: Human, Assay Type: Sister-chromatid exchange (SCE) in vitro, Assay Code: SC1T, Evaluation Type: Evaluation B (Post-1980)) was “no conclusion”.
In the case of `Cc1ccc(C2CO2)cc1` (stereo unspecified), the mutagenic call (Species/Cell Type: Escherichia coli WP2 UVRA, Assay Type: Tryptophan reverse gene mutation, Assay Code: WPU+D, Dose Response: With dose response, Evaluation Type: Evaluation A (Pre-1980)) is reported as “active; positive”, the mutagenic call (Species/Cell Type: Human lymphocytes, Assay Type: Sister-chromatid exchange (SCE) in vitro, Assay Code: SCL+, Evaluation Type: Evaluation B (Post-1980)) is reported as “active; positive” and the mutagenic call (Species/Cell Type: Human, Assay Type: Sister-chromatid exchange (SCE) in vitro, Assay Code: SC1+, Evaluation Type: Evaluation B (Post-1980)) is reported as “active; positive”. For the same molecule, the mutagenic call [1] was “active; positive”.
In the case of `CC1=C(O)C(=O)C(C2=C(O)C(=O)C(C)=C(O)C2=O)=C(O)C1=O`, the mutagenic call (Species/Cell Type: Saccharomyces cerevisiae, Assay Type: Mitotic recombination or gene conversion, Assay Code: YEH-, Evaluation Type: Evaluation A (Pre-1980)) is reported as “inactive; negative” and the mutagenic call (Species/Cell Type: Salmonella typhimurium (one or more of the five standard strains: TA98, TA100, TA1535, TA1537, and TA1538), Assay Type: Histidine reverse gene mutation, Ames assay, Assay Code: SALT, Evaluation Type: Evaluation A (Pre-1980)) is reported as “no conclusion”.
With `ClCC1CO1` (stereo unspecified) the mutagenic call (Species/Cell Type: Drosophila melanogaster, Assay Type: Sex-linked recessive lethal gene mutation, Assay Code: SRL+, Evaluation Type: Evaluation A (Pre-1980)) was “active; positive”, the mutagenic call [2] was “active; positive” and the mutagenic call (Species/Cell Type: Human lymphocytes or leukocytes, Assay Type: Chromosome aberrations in vitro, Assay Code: CY7+, Evaluation Type: Evaluation A (Pre-1980)) was “active; positive”. For the same molecule, the mutagenic call (Species/Cell Type: Human lymphocytes or leukocytes, Assay Type: Chromosome aberrations in vivo, Assay Code: CY8+, Evaluation Type: Evaluation A (Pre-1980)) was “active; positive”, the mutagenic call (Species/Cell Type: Human lymphocytes, Assay Type: Sister-chromatid exchange (SCE) in vitro, Assay Code: SCL+D, Dose Response: With dose response, Evaluation Type: Evaluation B (Post-1980)) was “active; positive” and the mutagenic call (Species/Cell Type: Human, Assay Type: Sister-chromatid exchange (SCE) in vitro, Assay Code: SC1+D, Dose Response: With dose response, Evaluation Type: Evaluation B (Post-1980)) was “active; positive”. For the same molecule, the mutagenic call (Species/Cell Type: Human, Sex: Male, Assay Type: Sperm morphology, Assay Code: SPH-, Evaluation Type: Evaluation A (Pre-1980)) was “inactive; negative”, the mutagenic call [3] was “no conclusion” and the mutagenic call (Species/Cell Type: Mouse, Sex: Male, Assay Type: Sperm morphology, Assay Code: SPI-, Evaluation Type: Evaluation A (Pre-1980)) was “inactive; negative”. The mutagenic call [4] was “active; positive”, the mutagenic call (Species/Cell Type: Neurospora crassa, Assay Type: Reverse gene mutation, Assay Code: NER+, Evaluation Type: Evaluation A (Pre-1980)) was “active; positive” and the call [5] was “active; positive”. For the same molecule, the mutagenic call (Species/Cell Type: Nonhuman, Assay Type: Sister-chromatid exchange (SCE) in vitro, Assay Code: SC2+D, Dose Response: With dose response, Evaluation Type: Evaluation B (Post-1980)) was “active; positive”, the mutagenic call [1] was “active; positive” and the mutagenic call (Species/Cell Type: Schizosaccharomyces pombe, Assay Type: Forward gene mutation, Assay Code: YEY+, Evaluation Type: Evaluation A (Pre-1980)) was “active; positive”. The mutagenic call (Species/Cell Type: Schizosaccharomyces pombe, Assay Type: Reverse gene mutation, Assay Code: YEZ+, Evaluation Type: Evaluation A (Pre-1980)) was “active; positive”.
For `COc1cc2c(c(O)c1O)C(=O)c1c(O)cc(C)cc1C2=O`, the mutagenic call [1] was “active; positive”.
In the case of `Cc1cc(Cl)ccc1N`, the call [5] is reported as “active; positive”.
In the case of `Cc1cc2nc3c(cc(N)c4ccccc43)oc-2cc1=[N+](C)C`, the mutagenic call [6] is reported as “inactive; negative”.
`CCCCN(CCC)N=O` was tested, and the mutagenic call [7] was “active; positive”.
With `COc1ccc2c3ccc(OC)cc3c3c4cc(OC)ccc4c4ccc(OC)cc4c3c2c1` the mutagenic call [7] was “active; positive”.
For `CN1CCN(c2ccc3nc(-c4ccc5nc(-c6ccc(O)cc6)[nH]c5c4)[nH]c3c2)CC1`, the mutagenic call (Species/Cell Type: Nonhuman, Assay Type: Sister-chromatid exchange (SCE) in vitro, Assay Code: SC2+D, Dose Response: With dose response, Evaluation Type: Evaluation A (Pre-1980)) was “active; positive”, the mutagenic call (Species/Cell Type: Nonhuman, Assay Type: Sister-chromatid exchange (SCE) in vivo, Assay Code: SC3-, Evaluation Type: Evaluation A (Pre-1980)) was “inactive; negative” and the mutagenic call (Species/Cell Type: Nonhuman, Assay Type: Sister-chromatid exchange (SCE) in vivo, Assay Code: SC3T, Evaluation Type: Evaluation B (Post-1980)) was “no conclusion”.
For `CC1C(c2ccccc2)OCCN1N=O` (stereo unspecified), the mutagenic call (Species/Cell Type: Salmonella typhimurium, Assay Type: Forward and reverse gene mutation, host-mediated assay, Assay Code: HMA-, Evaluation Type: Evaluation A (Pre-1980)) was “inactive; negative”.
For `ONc1ccc2ccccc2c1`, the mutagenic call (Species/Cell Type: Chinese hamster ovary (CHO) cells, Assay Type: Forward gene mutation at the HPRT locus, Assay Code: CHO+, Evaluation Type: Evaluation B (Post-1980)) was “active; positive”, the mutagenic call [2] was “active; positive” and the mutagenic call [4] was “active; positive”. For the same molecule, the call [5] was “active; positive”, the mutagenic call (Species/Cell Type: Saccharomyces cerevisiae, Assay Type: Mitotic recombination or gene conversion, Assay Code: YEH+, Evaluation Type: Evaluation A (Pre-1980)) was “active; positive” and the mutagenic call [1] was “active; positive”. The mutagenic call (Species/Cell Type: Salmonella typhimurium, Assay Type: Forward and reverse gene mutation, host-mediated assay, Assay Code: HMA+, Evaluation Type: Evaluation A (Pre-1980)) was “active; positive”.
In the case of `C1=Cc2c(cc3ccc4cccc5ccc2c3c45)CC1`, the mutagenic call [7] is reported as “active; positive”.
For `Nc1ccc(C(=O)O)c(O)c1`, the mutagenic call (Species/Cell Type: Escherichia coli polA (W3119 vs P3478), Assay Type: Rec-assay, DNA effects (bacterial DNA repair), Assay Code: RE1T, Evaluation Type: Evaluation A (Pre-1980)) was “no conclusion”.
With `Cc1nc2ccc([N+](=O)[O-])cc2[nH]1` the mutagenic call [1] was “active; positive”.
`O=NN1CCC(=O)CC1` was tested, and the mutagenic call [8] was “no conclusion” and the mutagenic call [7] was “active; positive”.
In the case of `O=c1cnn([C@@H]2O[C@H](CO)[C@@H](O)[C@H]2O)c(=O)[nH]1`, the mutagenic call [8] is reported as “no conclusion” and the mutagenic call (Species/Cell Type: Rabbit, Sex: Male, Assay Type: Sperm morphology, Assay Code: SPR+, Evaluation Type: Evaluation A (Pre-1980)) is reported as “active; positive”.
`O=[Te](=O)(O)O` was tested, and the mutagenic call (Species/Cell Type: Bacillus subtilis (H17 vs M45), Assay Type: Rec-assay, spot test, DNA effects (bacterial DNA repair), Assay Code: REW+, Evaluation Type: Evaluation A (Pre-1980)) was “active; positive” and the mutagenic call [6] was “inactive; negative”.
With `OCCN1CN(CCO)CN(CCO)C1` the mutagenic call [3] was “no conclusion”.
`COc1cc(NC(=O)c2ccccc2)c(OC)cc1[N+]#N` was tested, and the mutagenic call (Species/Cell Type: Bacillus subtilis (H17 vs M45), Assay Type: Rec-assay, spot test, DNA effects (bacterial DNA repair), Assay Code: REWT, Evaluation Type: Evaluation A (Pre-1980)) was “no conclusion”.
In the case of `Cc1cc(=O)oc2ccccc12`, the mutagenic call (Species/Cell Type: Allium cepa, Assay Type: Chromosome aberrations, Assay Code: ALC+, Evaluation Type: Evaluation A (Pre-1980)) is reported as “active; positive”.
